From patent publication US12280026B2, “Use of repirinast in the prophylaxis or treatment of renal fibrosis or kidney disease” (ALGERNON PHARMACEUTICALS INC., priority 2018, dated 2025)
Entries after “also recorded” stand apart in the source; their conditions may differ. Marks after values point to notes of the source that are not given here.

Experiments:
[1] = tested on: C57BL/6 mice with UUO surgical ligation; experiment: Example 1: UUO mice, renal function evaluation (plasma BUN, creatinine); assay type: in vivo; conditions: for BUN in comparison to control groups, in words / Reduction in levels of BUN compared to vehicle, significance in words: Example 1; for BUN in comparison to control groups, in words: UUO, male C57BL/6 mice, PO QD days 1-14, doses of Table 1; for Reduction in BUN compared to vehicle, in words, post-test not stated: Example 1 text and conclusions, Bemithyl 200, Repirinast 30, Bromantane 20, Telmisartan 5 mg/kg PO QD; for Reduction in levels of BUN compared to vehicle, significance in words: p<0.05, Tamhane post-test, Repirinast 30, Bemithyl 200, Bromantane 20 mg/kg PO QD
Experimental: Male 9-12 week old C57BL/6 mice of 23-25 grams body weight were used. All mice were acclimated for a minimum of 5 days prior to the start of the study and housed individually in microisolators throughout the study in a 12:12 light-dark cycle on a standard maintenance mouse chow diet (Harlan Teklad 2018) with food and water given ad libitum. Prior to surgery, all mice were weighed for baseline body weight.
The UUO surgical intervention was performed according to previously described methods known in the art (Le Meur Y et al., Macrophage accumulation at a site of renal inflammation is dependent on the M-CSF/c-fms pathway, J Leukocyte Biol., 72:530-537; 2002).
All mice were first anesthetized by intraperitoneal injection with a rodent cocktail (ketamine 10 mg/mL and Xyaline 1 mg/mL) in normal saline (10 μL/g body weight). Pedal reflex and movement of the vibrissae were used to determine the state of unconsciousness. A state of unconsciousness was confirmed after a period of about 5 minutes in all animals. All mice were then shaved on the left side of the abdomen. The shaved area was first swabbed with iodine and then swabbed with alcohol. A vertical incision was made through the skin with a #22 scalpel and the skin was then retracted. A further incision of about 2.5 cm was then made through the peritoneum avoiding any major blood vessels. The peritoneum was then retracted and the left kidney was exposed.
The left kidney was then brought to the surface by hooking the ureter directly beneath the kidney with sterile forceps and gently manipulating the kidney upward. The ureter was ligated at two points directly below the kidney with 5-0 surgical silk with excess suture cut away and discarded post-ligation. The kidney was then gently placed back to its correct anatomical position and the abdomen was lavaged with 1 mL sterile saline to replenish fluid loss. The peritoneum and then skin were sutured with 5-0 Mersilene, and the incision site was gently wiped with iodine. All mice were then placed individually in clean cages that were set on top of a thermal blanket until recovery at about 30-60 minutes later. In some examples, sham surgery was performed as a control by following all steps of the UUO surgical intervention procedure except ligation.
Following surgery, the mice were divided into 14 individual study groups of 8 mice each and, following post-surgical recovery, administered a once-daily oral treatment for 14 days. The mice in 12 of the 14 study groups (hereafter known as “treatment groups”) had all received the UUO surgical ligation and were treated individually with a distinct pharmacologic compound as set out in Table 1. The mice in 2 of the 14 study groups were treated individually with a pharmaceutically acceptable vehicle with no active ingredient. The pharmaceutically acceptable vehicle in all groups was 0.5% carboxymethyl cellulose (CMC). All mice were sacrificed with CO2 on post-surgical day 15.
(§1) The dose selected for the animal studies was determined by taking the maximum known human daily dose, dividing by the average weight of an adult (˜60-70 kg) to get a human mg/kg dose. Then that number was multiplied by 12 to convert to a mouse dose based on conventional dosing tables. See Nair and Jacob, J Basic Clin Pharm March 2016-May 2016, 7(2):27-31.
(§2) Serum collection: A blood sample was then collected from all mice and plasma analyzed for urea nitrogen and creatinine. Plasma was stored at −80° C. for possible future analysis.
(§3) Renal Function Evaluation: Renal function and disease progression was evaluated by BUN (blood urea nitrogen) as previously described. The BUN of each study group consisted of the BUN average of all mice in each study group.

[2] = Example 2: UUO mice, mean body weight change following surgery; assay type: in vivo, C57BL/6 mice; conditions: for Mean Body Weight Change Following Surgery, Day 1 / Mean Body Weight Change Following Surgery, Day 4 / Mean Body Weight Change Following Surgery, Day 7 / Mean Body Weight Change Following Surgery, Day 10 / Mean Body Weight Change Following Surgery, Day 14: UUO, female C57BL/6 mice, PO QD days 1-14, mg/kg: Telmisartan 3, Bemithyl 200, Repirinast 30, Telmisartan+Bemithyl 3+200, Telmisartan+Repirinast 3+30, Cenicriviroc 40, Bromantane 40; for Body weight course after surgery, in words: Example 2, mg/kg PO QD: Repirinast 30, Bemithyl 200, Bromantane 40, Telmisartan+Bemithyl 3+200
Experimental: (§4) In this example, healthy young female C57BL/6 mice were used for the study. At the commencement of the study, mice were between 9-12 weeks of age, weighing 23-25 g. All the mice were obtained from Charles River Laboratories.
(§5) The mice were maintained in a controlled environment with a temp 70-72° F., humidity 30-70%, with a photo cycle of 12 hours of light and 12 hours of dark. They were provided with Harlan Teklad 2018 standard maintenance mouse chow diet and drinking water ad libitium.
(§6) After five days of acclimatization, the mice were grouped according to their body weight. There were ten groups of ten mice each. Nine groups of ten mice each underwent UUO as described above and the other group of ten mice underwent a sham procedure to serve as a no-surgery control.
(§7) Following surgery, the mice were divided into 10 individual study groups of 10 mice each and, following post-surgical recovery, administered a once-daily oral treatment for 14 days. The mice in 8 of the 10 study groups had all received the UUO surgical ligation and were treated individually with a distinct pharmacologic compound as set out in Table 6. The mice in 2 of the 10 study groups were treated individually with a pharmaceutically acceptable vehicle with no active ingredient. The pharmaceutically acceptable vehicle in all groups was 0.5% carboxymethyl cellulose (CMC). All mice were sacrificed with CO2 on post-surgical day 15.
as §1, with “That” for “Then that”
Body weight: The body weights were measured on days 1, 4, 7, 10 and 14 using a laboratory balance.
Body weights were measured on post-surgical days 1, 4, 7, 10 and 14 as previously described. The mean body weight change of each study group was calculated using the body weight average of all mice in each study group.

[3] = tested on: C57BL/6 mice with UUO surgical ligation; experiment: Example 2: UUO mice, renal function evaluation (plasma BUN, creatinine); assay type: in vivo; conditions: for Level of BUN compared to vehicle or other agents, in words: Example 2, mg/kg PO QD: Telmisartan 3, Bemithyl 200, Repirinast 30, Telmisartan+Bemithyl 3+200, Telmisartan+Repirinast 3+30, Cenicriviroc 40, Bromantane 40; for BUN / Creatinine: plasma at sacrifice day 15, group mean, UUO, female C57BL/6 mice, PO QD days 1-14, mg/kg: Telmisartan 3, Bemithyl 200, Repirinast 30, Telmisartan+Bemithyl 3+200, Telmisartan+Repirinast 3+30, Cenicriviroc 40, Bromantane 40; for BUN: * significant vs vehicle Bonferroni, # Tamhane (p<0.05)
Experimental: as §4, §5, §6, §7
as §1, with “That” for “Then that”
as §2
(§8) The data are presented as the mean obtained from Microsoft Excel or GraphPad Prism version 5.00 for Windows (GraphPad Software, San Diego California USA). Data were analyzed using two-way ANOVA using Bonferroni and Tamhane post-tests. Differences between groups were considered significant at p<0.05.
as §3

[4] = tested on: C57BL/6 mice with UUO surgical ligation; experiment: Example 2: UUO mice, kidney weight evaluation; assay type: in vivo; conditions: for Drained Left Kidney: ligated kidney drained; for Drained Left Kidney / Excised Left Kidney / Right Kidney (g): group mean, UUO, female C57BL/6 mice, PO QD days 1-14, mg/kg: Telmisartan 3, Bemithyl 200, Repirinast 30, Telmisartan+Bemithyl 3+200, Telmisartan+Repirinast 3+30, Cenicriviroc 40, Bromantane 40; for Excised Left Kidney: ligated kidney; for Right Kidney (g): unligated kidney
Experimental: as §4, §5, §6, §7
as §1, with “That” for “Then that”
Kidney weight: The UUO was then examined in situ to ensure that the surgical ligation ties remained patent. Both the ligated (UUO) and non-ligated kidneys were removed for analysis. Weights of both kidneys were measured using a laboratory balance.
as §8
Kidney Weight Evaluation: Kidney weight, which indicates functional and pathological changes in the kidney, was evaluated by measuring the weight of both the ligated (UUO) and non-ligated kidneys as previously described. The ligated and non-ligated kidney weights of each study group consisted of the respective kidney weight averages of all mice in each study group.

Row | SMILES | BUN in comparison to control groups, in words [1] | Reduction in BUN compared to vehicle, in words, post-test not stated [1] | Reduction in levels of BUN compared to vehicle, significance in words [1] | Mean Body Weight Change Following Surgery, Day 1 [2] | Mean Body Weight Change Following Surgery, Day 4 [2] | Mean Body Weight Change Following Surgery, Day 7 [2] | Mean Body Weight Change Following Surgery, Day 10 [2] | Mean Body Weight Change Following Surgery, Day 14 [2] | Body weight course after surgery, in words [2] | Level of BUN compared to vehicle or other agents, in words [3] | BUN [3] | Creatinine [3] | Weight of the drained left kidney compared to the vehicle group, in words ([4]; Example 2, Telmisartan 3 + Repirinast 30 mg/kg, Bemithyl 200 mg/kg) | Drained Left Kidney [4] | Excised Left Kidney [4] | Right Kidney (g) [4]
1 | CCSc1nc2ccccc2[nH]1 [Bemithyl, 2-Ethylsulfanyl-1H-benzoimidazole] | less renal dysfunction and disease progression than the positive control treatment; also recorded: decreased in comparison to the sham surgery control group; also recorded: most improved renal function of all | reduction in BUN compared to vehicle | significant reductions in the levels of BUN | 0 g | 0.16 g | 0.16 g | 0.36 g | 0.54 g | no initial decrease in body weight; also recorded: even greater than that of the sham surgery control group; also recorded: appeared to reverse the negative effects of UUO on body weight gain | significant reductions in the level of BUN compared to vehicle; also recorded: reduction in BUN compared to vehicle | 19.4* mg/dL | 0.20 mg/dL | a similar effect was observed | 0.1565 g | 0.398 g | 0.1333* g
2 | Brc1ccc(NC2C3CC4CC(C3)CC2C4)cc1 (stereo not shown) [Bromantane, N-(4-Bromophenyl)adamantan-2-amine] | less renal dysfunction and disease progression than the positive control treatment; also recorded: decreased in comparison to the sham surgery control group | significant reductions in BUN compared to vehicle | significant reductions in the levels of BUN | 0 g | 0.11 g | 0.36 g | 0.15 g | 0.55 g | no initial decrease in body weight; also recorded: appeared to reverse the negative effects of UUO on body weight gain | significant reductions in the level of BUN compared to vehicle; also recorded: most effective compound tested; also recorded: superior to Telmisartan; also recorded: reduction in BUN compared to vehicle; also recorded: highest reductions in both fibrosis and BUN levels | 17.3** mg/dL | 0.20 mg/dL | – | 0.1775 g | 0.3995 g | 0.143* g
